This assay concerns MV-4-11 cells. Put plainly: Gene expression microarray analysis (Affymetrix PrimeView) and GSEA. Conditions: ProbeSet 11755436_x_at; LIST B. More on the design: RFU PODN (11730768_x_at) / Fold change /veh PODN (11730768_x_at) / RFU LINC00158 (11744669_a_at) / Fold change /veh LINC00158 (11744669_a_at) / RFU DUSP10 (11751237_a_at) / Fold change /veh DUSP10 (11751237_a_at) / RFU ID3 (11757404_x_at) / Fold change /veh ID3 (11757404_x_at) / RFU PLEKHG5 (11737974_s_at) / Fold change /veh PLEKHG5 (11737974_s_at) / RFU LRRC4B (11730491_at) / Fold change /veh LRRC4B (11730491_at) / RFU GIMAP4 (11747438_a_at) / Fold change /veh GIMAP4 (11747438_a_at) / RFU KRT8 (11758183_x_at) / Fold change /veh KRT8 (11758183_x_at) / RFU CNN1 (11734310_a_at) / Fold change /veh CNN1 (11734310_a_at) / RFU VPS37D (11726825_at) / Fold change /veh VPS37D (11726825_at) / RFU C10orf10 (11716522_x_at) / Fold change /veh C10orf10 (11716522_x_at) / RFU KIR2DL2 /// KIR2DL4 /// KIR2DL5A /// KIR2DL5B /// KIR2DS1 /// KIR2DS2 /// KIR2DS3 /// KIR2DS4 /// KIR3DL3 /// KIR3DL3 /// KIR3DS1 (11738374_at) / Fold change /veh KIR2DL2 /// KIR2DL4 /// KIR2DL5A /// KIR2DL5B /// KIR2DS1 /// KIR2DS2 /// KIR2DS3 /// KIR2DS4 /// KIR3DL3 /// KIR3DL3 /// KIR3DS1 (11738374_at) / RFU C1QL1 (11718748_at) / Fold change /veh C1QL1 (11718748_at) / RFU TMPRSS4 (11747572_a_at) / Fold change /veh TMPRSS4 (11747572_a_at) / RFU HAMP (11756126_x_at) / Fold change /veh HAMP (11756126_x_at) / RFU RNFT2 (11725882_a_at) / Fold change /veh RNFT2 (11725882_a_at) / RFU NR4A2 (11747474_a_at) / Fold change /veh NR4A2 (11747474_a_at) / RFU ABCC12 (11746883_a_at) / Fold change /veh ABCC12 (11746883_a_at) / RFU TMEM136 (11760407_x_at) / Fold change /veh TMEM136 (11760407_x_at) / RFU CLDN22 /// WWC2 (11732394_at) / Fold change /veh CLDN22 /// WWC2 (11732394_at) / RFU HLA-DPB1 (11760878_x_at) / Fold change /veh HLA-DPB1 (11760878_x_at) / RFU SPINT1 (11716480_a_at) / Fold change /veh SPINT1 (11716480_a_at) / RFU GAP43 (11754022_s_at) / Fold change /veh GAP43 (11754022_s_at) / RFU A4GNT (11735810_at) / Fold change /veh A4GNT (11735810_at) / RFU PRB3 (11715151_x_at) / Fold change /veh PRB3 (11715151_x_at) / RFU TUBB4B (11761932_at) / Fold change /veh TUBB4B (11761932_at) / RFU CAPN14 (11732068_a_at) / Fold change /veh CAPN14 (11732068_a_at) / RFU TMCC2 (11721928_a_at) / Fold change /veh TMCC2 (11721928_a_at) / RFU IRGQ (11745062_a_at) / Fold change /veh IRGQ (11745062_a_at) / RFU FAM174B (11720279_a_at) / Fold change /veh FAM174B (11720279_a_at) / RFU TMPRSS4 (11748680_a_at) / Fold change /veh TMPRSS4 (11748680_a_at) / RFU FAM212B (11763350_a_at) / Fold change /veh FAM212B (11763350_a_at) / RFU PLEKHG5 (11743358_a_at) / Fold change /veh PLEKHG5 (11743358_a_at) / RFU ZSCAN30 (11745921_a_at) / Fold change /veh ZSCAN30 (11745921_a_at) / RFU CMKLR1 (11741424_a_at) / Fold change /veh CMKLR1 (11741424_a_at) / RFU LOC101060620 /// MAPK8IP1 (11723275_at) / Fold change /veh LOC101060620 /// MAPK8IP1 (11723275_at) / RFU SPTSSB (11747773_x_at) / Fold change /veh SPTSSB (11747773_x_at) / RFU PRSS12 (11739890_at) / Fold change /veh PRSS12 (11739890_at) / RFU BIN1 (11741810_x_at) / Fold change /veh BIN1 (11741810_x_at) / RFU WNT11 (11732464_a_at) / Fold change /veh WNT11 (11732464_a_at) / RFU C10orf10 (11716521_a_at) / Fold change /veh C10orf10 (11716521_a_at) / RFU C5orf56 (11738089_at) / Fold change /veh C5orf56 (11738089_at) / RFU CYB561 (11721691_x_at) / Fold change /veh CYB561 (11721691_x_at) / RFU ANKRD19P (11752326_a_at) / Fold change /veh ANKRD19P (11752326_a_at) / RFU OR2T12 /// OR2T33 /// OR2T8 (11738714_s_at) / Fold change /veh OR2T12 /// OR2T33 /// OR2T8 (11738714_s_at) / RFU VCAN (11748164_a_at) / Fold change /veh VCAN (11748164_a_at) / RFU JSRP1 (11732532_at) / Fold change /veh JSRP1 (11732532_at) / RFU KRTAP10-11 (11738290_x_at) / Fold change /veh KRTAP10-11 (11738290_x_at) / RFU MYO3A (11730013_a_at) / Fold change /veh MYO3A (11730013_a_at) / RFU EBF3 (11725865_a_at) / Fold change /veh EBF3 (11725865_a_at) / RFU CAMK2N1 (11719241_x_at) / Fold change /veh CAMK2N1 (11719241_x_at) / RFU C5orf56 (11738088_a_at) / Fold change /veh C5orf56 (11738088_a_at) / RFU OLFML3 (11715873_a_at) / Fold change /veh OLFML3 (11715873_a_at) / RFU LOC100653217 /// NTM (11731650_a_at) / Fold change /veh LOC100653217 /// NTM (11731650_a_at) / RFU MAPK11 (11762145_a_at) / Fold change /veh MAPK11 (11762145_a_at) / RFU FIZ1 (11724087_x_at) / Fold change /veh FIZ1 (11724087_x_at) / RFU OASL (11726364_x_at) / Fold change /veh OASL (11726364_x_at) / RFU SOX15 (11748057_x_at) / Fold change /veh SOX15 (11748057_x_at) / RFU CD79A (11719716_a_at) / Fold change /veh CD79A (11719716_a_at) / RFU HIST1H1D (11736915_at) / Fold change /veh HIST1H1D (11736915_at) / RFU CASKIN2 (11723855_a_at) / Fold change /veh CASKIN2 (11723855_a_at) / RFU LOC730098 (11760151_x_at) / Fold change /veh LOC730098 (11760151_x_at) / RFU OR4N2 (11742367_at) / Fold change /veh OR4N2 (11742367_at) / RFU PRRT2 (11749266_a_at) / Fold change /veh PRRT2 (11749266_a_at) / RFU SNX32 (11753110_a_at) / Fold change /veh SNX32 (11753110_a_at) / RFU CDHR5 (11726645_a_at) / Fold change /veh CDHR5 (11726645_a_at) / RFU RCAN1 (11760418_a_at) / Fold change /veh RCAN1 (11760418_a_at) / RFU FAM167A (11723789_a_at) / Fold change /veh FAM167A (11723789_a_at) / RFU FAM26E (11764081_at) / Fold change /veh FAM26E (11764081_at) / RFU ISYNA1 (11749810_s_at) / Fold change /veh ISYNA1 (11749810_s_at) / RFU ACY1 (11761880_at) / Fold change /veh ACY1 (11761880_at) / RFU 11764098_at / Fold change /veh 11764098_at / RFU SAMD14 (11745864_x_at) / Fold change /veh SAMD14 (11745864_x_at) / RFU NPB (11741838_a_at) / Fold change /veh NPB (11741838_a_at) / RFU TMPRSS6 (11731388_a_at) / Fold change /veh TMPRSS6 (11731388_a_at) / RFU KRTAP10-2 (11738614_at) / Fold change /veh KRTAP10-2 (11738614_at) / RFU ARHGAP8 /// PRR5-ARHGAP8 (11727945_x_at) / Fold change /veh ARHGAP8 /// PRR5-ARHGAP8 (11727945_x_at) / RFU KRTAP5-7 /// NADSYN1 (11734609_at) / Fold change /veh KRTAP5-7 /// NADSYN1 (11734609_at) / RFU RASL12 (11751679_a_at) / Fold change /veh RASL12 (11751679_a_at) / RFU CDKN2B (11736163_a_at) / Fold change /veh CDKN2B (11736163_a_at) / RFU PRF1 (11729649_at) / Fold change /veh PRF1 (11729649_at) / RFU, ZNF638 /// ZNF638-IT1 / Fold change vs veh, ZNF638 /// ZNF638-IT1 / RFU, PANK3 / Fold change vs veh, PANK3 / RFU, SH3YL1 / Fold change vs veh, SH3YL1 / RFU, ZEB2 / Fold change vs veh, ZEB2 / RFU, NRIP1 / Fold change vs veh, NRIP1 / RFU, PTTG1IP / Fold change vs veh, PTTG1IP / RFU, CAPN2 / Fold change vs veh, CAPN2 / RFU, MED14 / Fold change vs veh, MED14 / RFU, SNORA58 / Fold change vs veh, SNORA58 / RFU, C1orf63 / Fold change vs veh, C1orf63 / RFU, LRRFIP1 / Fold change vs veh, LRRFIP1 / RFU, NDUFAF7 / Fold change vs veh, NDUFAF7 / RFU, SLC12A2 / Fold change vs veh, SLC12A2 / RFU, IBTK / Fold change vs veh, IBTK / RFU, ESF1 / Fold change vs veh, ESF1 / Fold change vs veh, TMEM50B / RFU, TAOK1 / Fold change vs veh, TAOK1 / RFU, ACBD3 / Fold change vs veh, ACBD3 / RFU, TMA16 / Fold change vs veh, TMA16 / RFU, RWDD3 / Fold change vs veh, RWDD3 / RFU, BCAT1 / Fold change vs veh, BCAT1 / RFU, EDEM3 / Fold change vs veh, EDEM3 / RFU, TMEM33 / Fold change vs veh, TMEM33 / RFU, WDR75 / Fold change vs veh, WDR75 / RFU, AHCTF1 / Fold change vs veh, AHCTF1 / RFU, TFRC / Fold change vs veh, TFRC / RFU, ZDHHC17 / Fold change vs veh, ZDHHC17 / RFU, NOM1 / Fold change vs veh, NOM1 / RFU, ARL8B / Fold change vs veh, ARL8B / RFU, ZBTB11 / Fold change vs veh, ZBTB11 / RFU, TAMM41 / Fold change vs veh, TAMM41 / RFU, KIAA1704 /// LOC100996395 / Fold change vs veh, KIAA1704 /// LOC100996395 / RFU, ING1 / Fold change vs veh, ING1 / RFU, TRMT61B / Fold change vs veh, TRMT61B / RFU, FUBP3 / Fold change vs veh, FUBP3 / RFU, TP53 / Fold change vs veh, TP53 / RFU, TNKS2 / Fold change vs veh, TNKS2 / RFU, ZFP14 / Fold change vs veh, ZFP14 / RFU, ACTR2 / Fold change vs veh, ACTR2 / RFU, PPP3R1 / Fold change vs veh, PPP3R1 / RFU, PIK3R1 / Fold change vs veh, PIK3R1 / RFU, HNRNPA1 / Fold change vs veh, HNRNPA1 / RFU, RNF170 / Fold change vs veh, RNF170 / RFU, ZNF28 / Fold change vs veh, ZNF28 / RFU, RNGTT / Fold change vs veh, RNGTT / RFU, OGT / Fold change vs veh, OGT / RFU, BRD1 / Fold change vs veh, BRD1 / RFU, MARS / Fold change vs veh, MARS / RFU, ZNF655 / Fold change vs veh, ZNF655 / RFU, FAHD1 / Fold change vs veh, FAHD1 / RFU, BDP1 / Fold change vs veh, BDP1 / RFU, LRRCC1 / Fold change vs veh, LRRCC1 / RFU, ARID1A / Fold change vs veh, ARID1A / RFU, ZNF146 / Fold change vs veh, ZNF146 / RFU, ZNF330 / Fold change vs veh, ZNF330 / RFU, GPN3 / Fold change vs veh, GPN3 / RFU, C9orf123 / Fold change vs veh, C9orf123 / RFU, N4BP2L2 / Fold change vs veh, N4BP2L2 / RFU, ARFIP1 / Fold change vs veh, ARFIP1 / RFU, FAM179B / Fold change vs veh, FAM179B / RFU, BCL10 / Fold change vs veh, BCL10 / RFU, UHRF1BP1L / Fold change vs veh, UHRF1BP1L / RFU, BET1 / Fold change vs veh, BET1 / RFU, CNOT2 / Fold change vs veh, CNOT2 / RFU, ZNF268 / Fold change vs veh, ZNF268 / Fold change vs veh, ZNF507 / RFU, DGCR2 / Fold change vs veh, DGCR2 / RFU, WDSUB1 / Fold change vs veh, WDSUB1 / Fold change vs veh, HSP90B1 /// MIR3652 / RFU, ADSS / Fold change vs veh, ADSS / RFU, GK / Fold change vs veh, GK / RFU, ZNF148 / Fold change vs veh, ZNF148 / RFU, TAF9 / Fold change vs veh, TAF9 / RFU, SLC1A5 / Fold change vs veh, SLC1A5 / RFU, SLMO2 / Fold change vs veh, SLMO2 / RFU, ABCC4 / Fold change vs veh, ABCC4 / RFU, LOC101060439 /// RAP1B / Fold change vs veh, LOC101060439 /// RAP1B / RFU, RFX7 / Fold change vs veh, RFX7 / RFU, GTPBP10 / Fold change vs veh, GTPBP10 / RFU, CNEP1R1 / Fold change vs veh, CNEP1R1 / RFU, BIVM-ERCC5 /// ERCC5 / Fold change vs veh, BIVM-ERCC5 /// ERCC5 / RFU, ILF3 / Fold change vs veh, ILF3 / RFU 11762660_at / Fold change /veh 11762660_at / RFU VCAN (11757783_s_at) / Fold change /veh VCAN (11757783_s_at) / RFU DDX43 (11728927_at) / Fold change /veh DDX43 (11728927_at) / RFU KRT8 (11758188_x_at) / Fold change /veh KRT8 (11758188_x_at) / RFU NKD1 (11759106_at) / Fold change /veh NKD1 (11759106_at) / RFU SRD5A1 (11742802_a_at) / Fold change /veh SRD5A1 (11742802_a_at) / RFU TPSAB1 /// TPSB2 (11721975_s_at) / Fold change /veh TPSAB1 /// TPSB2 (11721975_s_at) / RFU GSTM3 (11746129_a_at) / Fold change /veh GSTM3 (11746129_a_at) / RFU IL23R (11737362_x_at) / Fold change /veh IL23R (11737362_x_at) / RFU TMEM51 (11727254_a_at) / Fold change /veh TMEM51 (11727254_a_at) / RFU PIWIL2 (11732686_x_at) / Fold change /veh PIWIL2 (11732686_x_at) / RFU ORM1 (11744905_x_at) / Fold change /veh ORM1 (11744905_x_at) / RFU CCDC152 (11743942_at) / Fold change /veh CCDC152 (11743942_at) / RFU ECM1 (11717891_a_at) / Fold change /veh ECM1 (11717891_a_at) / RFU IL23R (11748794_a_at) / Fold change /veh IL23R (11748794_a_at) / RFU TNFAIP8L3 (11732012_x_at) / Fold change /veh TNFAIP8L3 (11732012_x_at) / RFU MBOAT4 (11741988_at) / Fold change /veh MBOAT4 (11741988_at) / RFU 11764193_at / Fold change /veh 11764193_at / RFU TMEM53 (11763286_at) / Fold change /veh TMEM53 (11763286_at) / RFU MAGEB2 (11727129_at) / Fold change /veh MAGEB2 (11727129_at) / RFU TMEM200A (11744735_a_at) / Fold change /veh TMEM200A (11744735_a_at) / RFU CCDC152 (11751479_a_at) / Fold change /veh CCDC152 (11751479_a_at) / RFU FAM211A (11726209_a_at) / Fold change /veh FAM211A (11726209_a_at) / RFU RGS16 (11746705_a_at) / Fold change /veh RGS16 (11746705_a_at) / RFU VCAN (11755009_s_at) / Fold change /veh VCAN (11755009_s_at) / RFU RHOB (11743442_s_at) / Fold change /veh RHOB (11743442_s_at) / RFU RGS16 (11720943_a_at) / Fold change /veh RGS16 (11720943_a_at) / RFU RGS16 (11720944_at) / Fold change /veh RGS16 (11720944_at) / RFU, VPS4B / Fold change vs veh, VPS4B / RFU, CREB1 / Fold change vs veh, CREB1 / RFU, DNAJC13 / Fold change vs veh, DNAJC13 / RFU, GNAQ / Fold change vs veh, GNAQ / RFU, CDK5R1 / Fold change vs veh, CDK5R1 / RFU, ZRANB3 / Fold change vs veh, ZRANB3 / RFU, CUL4A / Fold change vs veh, CUL4A / RFU, CCNY / Fold change vs veh, CCNY / RFU, UFL1 / Fold change vs veh, UFL1 / RFU, COG3 / Fold change vs veh, COG3 / RFU, DIAPH2 / Fold change vs veh, DIAPH2 / RFU, SKA2 / Fold change vs veh, SKA2 / RFU, AFF3 / Fold change vs veh, AFF3 / RFU, LMF1 / Fold change vs veh, LMF1 / RFU, IPO11 / Fold change vs veh, IPO11 / RFU, DFFB / Fold change vs veh, DFFB / RFU, FOXP1 / Fold change vs veh, FOXP1 / RFU, CARD8 / Fold change vs veh, CARD8 / RFU, STRN3 / Fold change vs veh, STRN3 / RFU, ADK / Fold change vs veh, ADK / RFU, RASSF2 / Fold change vs veh, RASSF2 / RFU, WIPF1 / Fold change vs veh, WIPF1 / RFU, LARP1B / Fold change vs veh, LARP1B / RFU, RASA1 / Fold change vs veh, RASA1 / RFU, RB1 / Fold change vs veh, RB1 / RFU, PPFIA1 / Fold change vs veh, PPFIA1 / RFU, MAT2A / Fold change vs veh, MAT2A / RFU, CCT5 / Fold change vs veh, CCT5 / RFU, WDR92 / Fold change vs veh, WDR92 / RFU, CUX1 / Fold change vs veh, CUX1 / RFU, TTC7A / Fold change vs veh, TTC7A / RFU, TMEM135 / Fold change vs veh, TMEM135 / RFU, DEPTOR / Fold change vs veh, DEPTOR / RFU, CPM / Fold change vs veh, CPM / RFU, DNAJB6 / Fold change vs veh, DNAJB6 / RFU, CACNA2D3 / Fold change vs veh, CACNA2D3 / RFU, DTX4 / Fold change vs veh, DTX4 / RFU, TFCP2 / Fold change vs veh, TFCP2 / RFU, GMCL1 /// GMCL1P1 / Fold change vs veh, GMCL1 /// GMCL1P1 / RFU, AEBP2 / Fold change vs veh, AEBP2 / RFU, SNHG1 /// SNORD22 /// SNORD25 /// SNORD26 /// SNORD27 /// SNORD28 /// SNORD29 /// SNORD31 / Fold change vs veh, SNHG1 /// SNORD22 /// SNORD25 /// SNORD26 /// SNORD27 /// SNORD28 /// SNORD29 /// SNORD31 / Fold change (Aza/veh), C12orf56 (ProbeSet 11735607_a_at) / Fold change (ACY-1035/veh), C12orf56 (ProbeSet 11735607_a_at) / Fold change (Aza/veh), FGFR1OP (ProbeSet 11751329_s_at) / Fold change (ACY-1035/veh), FGFR1OP (ProbeSet 11751329_s_at) / Fold change (Aza/veh), VPS36 (ProbeSet 11739960_a_at) / Fold change (ACY-1035/veh), VPS36 (ProbeSet 11739960_a_at) / RFU SYPL1 (11715823_x_at) / Fold change /veh SYPL1 (11715823_x_at) / RFU IGFBP7 (11715501_s_at) / Fold change /veh IGFBP7 (11715501_s_at) / RFU REEP3 (11722064_at) / Fold change /veh REEP3 (11722064_at) / RFU IGLL1 (11728026_x_at) / Fold change /veh IGLL1 (11728026_x_at): dose or concentration left out as unconfirmed. The format is cell-based, human.

As for `Nc1ccc(-c2cccs2)cc1NC(=O)c1ccc2c(c1)cc(C1CC1)n2CCN1CCOCC1` [ACY-1035], the “Fold change vs veh, ARID1A” value worked out at 0.98.

For the origin of these results see PMC5218480 (PLoS ONE, 2017).
